Results on 15 compounds are retold here after PubChem BioAssay (NCI).

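All cell lines were grown in 96-well plates and treated with compound for 48 hours. TGI: total growth inhibition.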

In one experiment the test system is MOLT-4 leukemia. Description: inhibition of tumour cell growth, NCI panel, 48 h.
Turning to `CCOc1cc(NC(C)=O)ccc1C(=O)NN1C(=O)C(Cl)C1c1ccccc1` (stereo unspecified), the TGI is 21.3 µM.
On the same count and under the same terms, in the case of `Cc1ccc(S(=O)(=O)n2cc(-c3cc(C(F)(F)F)ccn3)c3cc(Br)ccc32)cc1` it was above 100 µM; in that of `CN(CCCCCl)P(=O)(OCc1ccc([N+](=O)[O-])o1)OC[C@H]1O[C@@H](n2cc(F)c(=O)[nH]c2=O)C[C@@H]1O` (stereo partly specified), above 46.1 µM.
Same read-out and setting: in the case of `CCOC(=O)P(=O)(O)c1ccc(N(C)Cc2ccccc2)cc1` it was above 100 µM.
Same read-out and setting: to `[N-]=[N+]=Nc1ccccc1C(=O)N1C(=O)c2ccccc2C(=O)N(C(=O)c2ccccc2N=[N+]=[N-])c2ccccc21` belongs 50.7 µM.
`CC(C)Cn1cnc2c(NCC(C)O)nc3ccccc3c21` (stereo unspecified) returned a TGI above 100 µM.
Still for that read-out and setting: to `COC1(OC)c2no[n+]([O-])c2CCC1O` (stereo unspecified) belongs above 100 µM; to `OC1(c2cccs2)c2cccc(Cl)c2C(O)(c2cccs2)c2c(Cl)cccc21` (stereo unspecified), above 100 µM.
With `C=CCOc1cccc(C2(O)c3ccccc3C3=NCCCN32)c1` (stereo unspecified), the TGI came out at 40 µM.
Same read-out and setting: to `C=CCN1C(=O)/C(=C/c2ccc(OC)cc2)N=C1SC/C=C/C` belongs 66.7 µM; to `O=C(ON=C1c2ccccc2C(Br)C(Br)c2ccccc21)c1cc([N+](=O)[O-])cc([N+](=O)[O-])c1` (stereo unspecified), 45.1 µM; to `CC1=NN(C(=O)c2ccccc2O)C(=O)/C1=C/c1ccco1`, above 100 µM.
For the compound `Cn1c2ccccc2c2c(-c3ccccc3)cc3c(c21)C(=O)C=CC3=O`, the TGI amounted to 1.1 µM.
Same read-out and setting: in the case of `COc1ccc(Nc2nnc(-c3nsc4ccccc34)s2)cc1` it was above 100 µM; in that of `NC(N)=N/N=C/c1c(-c2ccc(Cl)cc2)nc2sccn12`, 5.08 µM.

In another experiment the test system is MDA-N. Description: inhibition of tumour cell growth, NCI panel, 48 h.
For `CCOc1cc(NC(C)=O)ccc1C(=O)NN1C(=O)C(Cl)C1c1ccccc1` (stereo unspecified), the TGI was 32.9 µM.
On the same count and under the same terms, in the case of `Cc1ccc(S(=O)(=O)n2cc(-c3cc(C(F)(F)F)ccn3)c3cc(Br)ccc32)cc1` it was above 100 µM; in that of `CN(CCCCCl)P(=O)(OCc1ccc([N+](=O)[O-])o1)OC[C@H]1O[C@@H](n2cc(F)c(=O)[nH]c2=O)C[C@@H]1O` (stereo partly specified), 33.3 µM; in that of `CCOC(=O)P(=O)(O)c1ccc(N(C)Cc2ccccc2)cc1`, above 100 µM.
In the case of `[N-]=[N+]=Nc1ccccc1C(=O)N1C(=O)c2ccccc2C(=O)N(C(=O)c2ccccc2N=[N+]=[N-])c2ccccc21`, the TGI is above 100 µM.
The same measure, in the same setting: to `CC(C)Cn1cnc2c(NCC(C)O)nc3ccccc3c21` (stereo unspecified) belongs above 100 µM.
On the same count and under the same terms, in the case of `COC1(OC)c2no[n+]([O-])c2CCC1O` (stereo unspecified) it was above 100 µM.
In turn, `OC1(c2cccs2)c2cccc(Cl)c2C(O)(c2cccs2)c2c(Cl)cccc21` (stereo unspecified) came in with a TGI above 100 µM.
Same read-out and setting: in the case of `C=CCOc1cccc(C2(O)c3ccccc3C3=NCCCN32)c1` (stereo unspecified) it was 33.1 µM; in that of `C=CCN1C(=O)/C(=C/c2ccc(OC)cc2)N=C1SC/C=C/C`, above 100 µM; in that of `O=C(ON=C1c2ccccc2C(Br)C(Br)c2ccccc21)c1cc([N+](=O)[O-])cc([N+](=O)[O-])c1` (stereo unspecified), 48.8 µM.
In the case of `CC1=NN(C(=O)c2ccccc2O)C(=O)/C1=C/c1ccco1`, the TGI was above 100 µM.
Still for that read-out and setting: in the case of `Cn1c2ccccc2c2c(-c3ccccc3)cc3c(c21)C(=O)C=CC3=O` it was above 7.18 µM; in that of `COc1ccc(Nc2nnc(-c3nsc4ccccc34)s2)cc1`, above 100 µM; in that of `NC(N)=N/N=C/c1c(-c2ccc(Cl)cc2)nc2sccn12`, 3.33 µM.

The next experiment concerns SW-620 colon. Description: inhibition of tumour cell growth, NCI panel, 48 h.
As to `CCOc1cc(NC(C)=O)ccc1C(=O)NN1C(=O)C(Cl)C1c1ccccc1` (stereo unspecified), the TGI turned out to be 59.6 µM.
Still for that read-out and setting: in the case of `Cc1ccc(S(=O)(=O)n2cc(-c3cc(C(F)(F)F)ccn3)c3cc(Br)ccc32)cc1` it was above 100 µM.
Still for that read-out and setting: in the case of `CN(CCCCCl)P(=O)(OCc1ccc([N+](=O)[O-])o1)OC[C@H]1O[C@@H](n2cc(F)c(=O)[nH]c2=O)C[C@@H]1O` (stereo partly specified) it was above 81.8 µM; in that of `CCOC(=O)P(=O)(O)c1ccc(N(C)Cc2ccccc2)cc1`, above 100 µM; in that of `[N-]=[N+]=Nc1ccccc1C(=O)N1C(=O)c2ccccc2C(=O)N(C(=O)c2ccccc2N=[N+]=[N-])c2ccccc21`, above 100 µM.
Still for that read-out and setting: in the case of `CC(C)Cn1cnc2c(NCC(C)O)nc3ccccc3c21` (stereo unspecified) it was above 100 µM; in that of `COC1(OC)c2no[n+]([O-])c2CCC1O` (stereo unspecified), above 100 µM.
As to `OC1(c2cccs2)c2cccc(Cl)c2C(O)(c2cccs2)c2c(Cl)cccc21` (stereo unspecified), the TGI was above 100 µM.
On the same count and under the same terms, in the case of `C=CCOc1cccc(C2(O)c3ccccc3C3=NCCCN32)c1` (stereo unspecified) it was 28.7 µM; in that of `C=CCN1C(=O)/C(=C/c2ccc(OC)cc2)N=C1SC/C=C/C`, above 100 µM.
The same measure, in the same setting: in the case of `O=C(ON=C1c2ccccc2C(Br)C(Br)c2ccccc21)c1cc([N+](=O)[O-])cc([N+](=O)[O-])c1` (stereo unspecified) it was 40.5 µM; in that of `CC1=NN(C(=O)c2ccccc2O)C(=O)/C1=C/c1ccco1`, above 100 µM; in that of `Cn1c2ccccc2c2c(-c3ccccc3)cc3c(c21)C(=O)C=CC3=O`, 2.21 µM.
Still for that read-out and setting: to `COc1ccc(Nc2nnc(-c3nsc4ccccc34)s2)cc1` belongs above 100 µM; to `NC(N)=N/N=C/c1c(-c2ccc(Cl)cc2)nc2sccn12`, 3.04 µM.

The next experiment relates to NCI-H226 lung. Description: inhibition of tumour cell growth, NCI panel, 48 h.
On to `CCOc1cc(NC(C)=O)ccc1C(=O)NN1C(=O)C(Cl)C1c1ccccc1` (stereo unspecified), for which the TGI was 46.3 µM.
The same measure, in the same setting: in the case of `Cc1ccc(S(=O)(=O)n2cc(-c3cc(C(F)(F)F)ccn3)c3cc(Br)ccc32)cc1` it was 57 µM.
The same measure, in the same setting: in the case of `CN(CCCCCl)P(=O)(OCc1ccc([N+](=O)[O-])o1)OC[C@H]1O[C@@H](n2cc(F)c(=O)[nH]c2=O)C[C@@H]1O` (stereo partly specified) it was above 86.6 µM.
On the same count and under the same terms, to `CCOC(=O)P(=O)(O)c1ccc(N(C)Cc2ccccc2)cc1` belongs above 100 µM; to `[N-]=[N+]=Nc1ccccc1C(=O)N1C(=O)c2ccccc2C(=O)N(C(=O)c2ccccc2N=[N+]=[N-])c2ccccc21`, above 100 µM; to `CC(C)Cn1cnc2c(NCC(C)O)nc3ccccc3c21` (stereo unspecified), above 100 µM.
For `COC1(OC)c2no[n+]([O-])c2CCC1O` (stereo unspecified), the TGI was above 100 µM.
Same read-out and setting: to `OC1(c2cccs2)c2cccc(Cl)c2C(O)(c2cccs2)c2c(Cl)cccc21` (stereo unspecified) belongs above 100 µM.
Still for that read-out and setting: in the case of `C=CCOc1cccc(C2(O)c3ccccc3C3=NCCCN32)c1` (stereo unspecified) it was above 31.6 µM; in that of `C=CCN1C(=O)/C(=C/c2ccc(OC)cc2)N=C1SC/C=C/C`, above 100 µM; in that of `O=C(ON=C1c2ccccc2C(Br)C(Br)c2ccccc21)c1cc([N+](=O)[O-])cc([N+](=O)[O-])c1` (stereo unspecified), 48.6 µM.
Still for that read-out and setting: to `CC1=NN(C(=O)c2ccccc2O)C(=O)/C1=C/c1ccco1` belongs 44.4 µM; to `Cn1c2ccccc2c2c(-c3ccccc3)cc3c(c21)C(=O)C=CC3=O`, 5.04 µM.
The compound `COc1ccc(Nc2nnc(-c3nsc4ccccc34)s2)cc1` came in with a TGI above 100 µM.
Still for that read-out and setting: to `NC(N)=N/N=C/c1c(-c2ccc(Cl)cc2)nc2sccn12` belongs 7.49 µM.

The next experiment relates to NCI-H23 lung. Description: inhibition of tumour cell growth, NCI panel, 48 h.
With `CCOc1cc(NC(C)=O)ccc1C(=O)NN1C(=O)C(Cl)C1c1ccccc1` (stereo unspecified), the TGI came to 32.3 µM.
As for `Cc1ccc(S(=O)(=O)n2cc(-c3cc(C(F)(F)F)ccn3)c3cc(Br)ccc32)cc1`, the TGI amounted to 31.1 µM.
Still for that read-out and setting: to `CN(CCCCCl)P(=O)(OCc1ccc([N+](=O)[O-])o1)OC[C@H]1O[C@@H](n2cc(F)c(=O)[nH]c2=O)C[C@@H]1O` (stereo partly specified) belongs 20.5 µM; to `CCOC(=O)P(=O)(O)c1ccc(N(C)Cc2ccccc2)cc1`, above 100 µM; to `[N-]=[N+]=Nc1ccccc1C(=O)N1C(=O)c2ccccc2C(=O)N(C(=O)c2ccccc2N=[N+]=[N-])c2ccccc21`, above 100 µM.
As for `CC(C)Cn1cnc2c(NCC(C)O)nc3ccccc3c21` (stereo unspecified), the TGI is above 100 µM.
The compound `COC1(OC)c2no[n+]([O-])c2CCC1O` (stereo unspecified) displayed a TGI above 100 µM.
The same measure, in the same setting: in the case of `OC1(c2cccs2)c2cccc(Cl)c2C(O)(c2cccs2)c2c(Cl)cccc21` (stereo unspecified) it was above 100 µM; in that of `C=CCOc1cccc(C2(O)c3ccccc3C3=NCCCN32)c1` (stereo unspecified), above 47.2 µM; in that of `C=CCN1C(=O)/C(=C/c2ccc(OC)cc2)N=C1SC/C=C/C`, above 100 µM.
On the same count and under the same terms, in the case of `O=C(ON=C1c2ccccc2C(Br)C(Br)c2ccccc21)c1cc([N+](=O)[O-])cc([N+](=O)[O-])c1` (stereo unspecified) it was 40.1 µM.
